Test results published in article PMC6905430 (Biochemistry, 2019).

Columns and labels:
wild type DXP synthase = wild type DXP synthase (Escherichia coli, UniProt P77488); assay: Anaerobic limited trypsinolysis in the presence of MAP; design: species or system E. coli; conditions: preincubation with MAP 65 μM, 45 min, 6 °C; trypsin 4.5 ng/μL; up to 150 min
H299A DXP synthase = H299A DXP synthase (Escherichia coli, UniProt P77488, H299A); type: biochemical, E. coli; conditions: H299A vs wild type
H49A DXP synthase = H49A DXP synthase (Escherichia coli, UniProt P77488, H49A); type: biochemical, E. coli
H49N DXP synthase = H49N DXP synthase (Escherichia coli, UniProt P77488, H49N); type: biochemical, E. coli; conditions: read-out: Km^app,pyruvate; anaerobic; pyruvate varied, D-GAP 500 μM; n = 3
H299N DXP synthase = H299N DXP synthase (Escherichia coli, UniProt P77488, H299N); type: biochemical, E. coli
[1] = read-out: Km^app,pyruvate, anaerobic, pyruvate varied, D-GAP 500 μM, n = 3

Compound | effect of MAP on trypsinolysis profile (wild type DXP synthase) | decrease in kcat/Km^pyruvate relative to wild type DXP synthase (H299A DXP synthase) [fold] | decrease in kcat/Km^pyruvate compared to wild type DXP synthase (H49A DXP synthase; H49A vs wild type) [fold] | Km (H49A DXP synthase; [1]) [mM] | Km (H49N DXP synthase) [mM] | decrease in kcat/Km^pyruvate relative to wild type DXP synthase (H299N DXP synthase; H299N vs wild type) [fold] | Km (H299N DXP synthase; [1]) [mM]
COP(=O)(O)C(C)=O [MAP, methylacetylphosphonate] | K313 is protected from typsinolysis | – | – | – | – | – | –
CC(=O)C(=O)O [pyruvate] | – | 846 | 76 | 1.07 | 1.61 | 185 | 1.08
